Experiment [1] relates to TREM-1. The experiment can be described thus: Rat model of myocardial ischemia-reperfusion, cardiac function by conductance catheter. The class given is in vivo. Set-up: PRSW: unit not given beside the values; Emax / ESPVR: unit not given here. The settings on record: six weeks after ischemia-reperfusion; 3 mg/kg once a day for 5 days. As for the experimental part: Adult male Wistar rats were subjected to myocardial ischemia-reperfusion and were randomly grouped (n=10) to receive repeated TREM-1- and TLT-1-derived peptides (3 mg/kg in 0.2 mL NaCl 0.9% once a day for 5 days) or scrambled-LR12 (3 mg/kg in 0.2 mL NaCl 0.9% once a day for 5 days). Six weeks after myocardial injury, cardiac function was investigated under anaesthesia by using a conductance catheter. Emax, ESPVR, and PRSW were higher in animals treated with TREM-1- and TLT-1-derived peptides than in control rats. All p<0.02 [controls versus LR12]).
Animals received same surgery than in permanent ischemia, but with reperfusion of ischemic area by release of the LAD ligation after 60 minutes of ischemia. The same protocol as described above was then applied.
Rats were anaesthetized with isoflurane and a 2 F high-fidelity micro-manometer catheter (SPR-407, Millar Institute, Houston, Tex., USA) was inserted into the LV via the right carotid artery. The Millar catheter was connected to a Harvard Data Acquisition System interfaced with a PC with the AcqKnowledge III software (ACQ 3.2).
To investigate the role of TREM-1- and TLT-1-derived peptides in a more relevant model of MI, we performed a transient coronary artery ligation (ischemia-reperfusion model: IR) in rats. After randomisation, animals were then imaged under anaesthesia (micro-TEP) and administered with TREM-1- and TLT-1-derived peptides (3 mg/kg daily for 5 days i.p.) or LR12-scrambled peptide. Imaging was then repeated at 6 weeks before we studied cardiac function by using a conductance catheter (Millar).

Experiment [2] deals with T1, TREM-1 (Mus musculus, UniProt Q9JKE2).
T1 construct: endogenous in cells; host or cells: living mice (C57BL, Balb/c, ApoE-/-), in vivo
T1 sequence (Q9JKE2 21-230): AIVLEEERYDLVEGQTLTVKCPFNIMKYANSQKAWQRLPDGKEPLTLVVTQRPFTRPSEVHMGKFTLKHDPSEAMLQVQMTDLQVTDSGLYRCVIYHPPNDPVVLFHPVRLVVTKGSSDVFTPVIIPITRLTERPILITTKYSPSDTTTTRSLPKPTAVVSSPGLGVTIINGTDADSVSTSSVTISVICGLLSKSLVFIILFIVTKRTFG
The experiment can be described thus: Mouse model of myocardial infarction, survival. The class given is in vivo. The note with it: 100 μg daily for 5 days i.p., beginning 60 min after ligation; Log-Rank p<0.01. On the procedure: Adult male Balb/c mice (20-23 g) were subjected to myocardial ischemia and were randomly grouped (n=10-15 per group) to receive repeated TREM-1- and TLT-1-derived peptides (100 μg in 0.2 mL NaCl 0.9% once a day for 5 days), scrambled-LR12 (100 μg in 0.2 mL NaCl 0.9% once a day for 5 days), or 10 μg anti-TREM-1 mAb in 0.2 mL NaCl 0.9% i.p. injections. Survival was monitored over 1 wk and analyzed by Log Rank test. (There were no deaths after the 5th day). Data are representative of at least 15 different experiments.
All procedures were performed on mice male C57BL/C ranging in age from 6-8 weeks. Mice were anesthetized by an intraperitoneal injection of xylazine (60 mg/kg) and fixed in supine position. The trachea was intubated and ventilated (the tidal volume was 200 μl/25 g and the respiratory rate was 120 breaths/min). After a left thoracotomy, the left coronary artery was identified and ligated with an 8-0 prolene surgical suture at 1.0 mm distal from tip of the left auricle. LAD occlusion was confirmed by a change in myocardial color from red to white in the ischemia area (Left ventricle). The chest was closed and the skin was sutured with 6-0 silk. […]
Mice were monitored after surgery for mortality. Mice were randomized to receive or not peptides (daily ip injection for 5 days, 5 mg/kg) and monitored for survival. […]

In experiment [3] the test system is TREM-1. The experiment can be described thus: Monkey model of endotoxin (LPS) infusion: blood pressure monitoring. The class given is in vivo, cynomolgus monkey (Macaca fascicularis). On the procedure:
Male cynomolgus monkeys (Macaca fascicularis) (2.8 to 3.5 kg, 24 months old, Le Tamarinier, La Route Royale, Tamarin, Mauritius) were used. Animals were fasted the day before LPS challenge but with full access to water. CIToxLAB France Ethical Committee (CEC) reviewed and approved all study plans (Nr CEC: 02221).
Vital signs and weight were recorded the day before LPS challenge. The next morning, baseline clinical laboratory samples were collected, and a baseline set of vital signs was recorded. The drug was administered into the cephalic or saphenous vein via a Teflon catheter. Contralateral vein was used for LPS administration.
Monkeys were randomized to receive LR12 or placebo (n=6 per group). An additional group of 4 was constituted to only receive vehicle (NaCl 0.9%) infusion and served as the control group.
At time point 0, a 15 mins intravenous infusion of LR12 or placebo solution was begun, at the rate of 12 mL/h (5 mg/kg, 10 mins, 2 mL), delivered by a calibrated syringe pump (Harvard Apparatus). A continuous infusion was then administered for further 8 hours at the rate of 2 mL/h (1 mg/kg/h, 8 hours, 16 mL). Just before treatment infusion, an intravenous bolus of LPS (10 μg/kg) was administered over the course of a 10 mins period into the contralateral catheter. Animals remained awake in an upright position in a restraint chairs and continued to fast from food for the whole study duration.
Pulse rate, and blood pressure were monitored every 15 mins for 1 hour, then every 30 mins for 7 hours.

In experiment [1], “LQEEDAGEYGCM (listed as Homo sapiens) [TLT1-LR12]” came in with an ESPVR of 2.2 ± 0.1, an Emax of 4.8 ± 0.5 and a PRSW of 103 ± 5. For the same sequence, the “survival after permanent coronary artery ligation” value in experiment [2] was “All but 1 LR12-treated animals survived”. Also, the “arterial pressure / hypotension after LPS challenge” value in experiment [3] (LPS 10 μg/kg) was “never went hypotensive”. In addition, the “Heart rate after LPS injection” value in experiment [3] (LPS 10 μg/kg, 5 mg/kg then 1 mg/kg/h for 8 hours i.v.) is “no effects”. In addition, the “body temperature increase after LPS, difference between placebo (LR12scr) and LR12-treated animals” value in experiment [3] (between H1 and H2) was “not significant”.

Values taken from patent publication US9657081B2, “Inhibiting peptides derived from triggering receptor expressed on myeloid cells-1 (TREM-1) TREM-like transcript 1 (TLT-1) for treatment of cardiovascular diseases” (INSERM (Institut National de la Sante et de la Recherche …, priority 2013, dated 2017).
